Patent publication US20210000953A1, “USE OF IMMUNE CHECKPOINT INHIBITORS IN CENTRAL NERVOUS SYSTEMS NEOPLASMS” (Bristol-Myers Squibb Company, priority 2014, published 2021)

Legend:
[1] = Phase 1 study of nivolumab; cited from earlier work
[2] = in vivo; cited from earlier work
PD-1 = target: T1, PD-1 (Homo sapiens, UniProt Q15116); assay: PD-1 receptor occupancy in subjects dosed with nivolumab; assay type: in vivo; details: 15 subjects, 0.3 mg/kg to 10 mg/kg, across all doses
T1 construct: Receptor-occupancy data from 15 subjects who received 0.3 mg/kg to 10 mg/kg dosing with nivolumab; endogenous in cells
Description: When used in combinations with other anti-cancer agents, the dosage of an anti-PD-1 antibody can be lowered compared to the monotherapy dose. Dosages of nivolumab that are lower than the typical 3 mg/kg, but not less than 0.001 mg/kg, are subtherapeutic dosages. The subtherapeutic doses of an anti-PD-1 antibody used in the methods herein are higher than 0.001 mg/kg and lower than 3 mg/kg. In some embodiments, a subtherapeutic dose is about 0.001 mg/kg-about 1 mg/kg, about 0.01 mg/kg-about 1 mg/kg, about 0.1 mg/kg-about 1 mg/kg, or about 0.001 mg/kg-about 0.1 mg/kg body weight. In some embodiments, the subtherapeutic dose is at least about 0.001 mg/kg, at least about 0.005 mg/kg, at least about 0.01 mg/kg, at least about 0.05 mg/kg, at least about 0.1 mg/kg, at least about 0.5 mg/kg, or at least about 1.0 mg/kg body weight. Receptor-occupancy data from 15 subjects who received 0.3 mg/kg to 10 mg/kg dosing with nivolumab indicate that PD-1 occupancy appears to be dose-independent in this dose range. Across all doses, the mean occupancy rate was 85% (range, 70% to 97%), with a mean plateau occupancy of 72% (range, 59% to 81%). In some embodiments, 0.3 mg/kg dosing can allow for sufficient exposure to lead to maximal biologic activity.

Tregs = assay: Cytokine release from sorted Tregs (CD4+CD25+CD127−) ± stimulation; assay type: cell-based, human; details: GBM patients on nivolumab treatment
Description: Analyses were performed on peripheral blood drawn from patients at predetermined time points (FIG. 13) and tumor tissue samples were obtained if resection was performed at the time of progression or suspected progression. Baseline and on-treatment samples were obtained from patients (n=20) randomized 1:1 to receive either nivolumab 3 mg/kg every 2 weeks (Q2W) or nivolumab 1 mg/kg+ipilimumab 3 mg/kg every 3 weeks followed by nivolumab 3 mg/kg Q2W (FIG. 13). Phenotypic, maturation, and proliferation analyses were performed using flow cytometry with population-specific antibody panels (Table 11). Cytokine release analyses were carried out on supernatants from sorted Tregs (CD4+CD25+CD127−)±stimulation (PMA+ionomycin). The anti-tumor-associated antigen (TAA) activity of peripheral blood mononuclear cells (PBMCs) and tumor-infiltrating lymphocytes (TILs) was evaluated. Cells were stimulated with interleukin (IL)-2, IL-15, and TAA peptides; after 9 days of culture with IL-2 and IL-15, cells were restimulated with IL-2, IL-15, and TAA peptides. Production of interferon (IFN)γ/granzyme B was assayed using a dual-color FluoroSpot assay.

recurrent GBM = assay: Study CA209143 safety lead-in cohorts (Cohort 1, 1b): investigator-assessed tumor response per RANO (brain MRI) and overall survival; assay type: in vivo, human
Description: A randomized, open-label, multicenter, phase 3 study of nivolumab monotherapy versus bevacizumab and a safety study of nivolumab and nivolumab in combination with ipilimumab is conducted in adult (>18 years) subjects with a first recurrence of GBM after treatment with radiotherapy and temozolomide. Since the use of nivolumab and ipilimumab has not previously been studied in subjects with GBM, a safety lead-in (Cohort 1) consisting of approximately 10 subjects in each of two treatment arms are enrolled and randomized to treatment with either Arm N (nivolumab monotherapy) or Arm N+I (nivolumab combined with ipilimumab). Tolerability and safety of a treatment arm is determined after all subjects in the arm completed four doses or discontinued dosing prior to completing four doses. A safety evaluation of Cohort 1 is conducted for each arm based on criteria described herein.
In order to better characterize preliminary safety and tolerability for the combination therapy, an additional, non-randomized safety cohort (Cohort 1b) to evaluate an alternate dosing regimen is initiated for the combination therapy (nivolumab 3 mg/kg+ipilimumab 1 mg/kg every 3 weeks for 4 cycles followed by nivolumab 3 mg/kg thereafter). Evaluation of the efficacy of nivolumab+ipilimumab combination therapy will be evaluated separately. Information from subjects treated with combination therapy in Cohort 1 and Cohort 1b will provide a basis for dose selection for future studies in subjects with GBM.
All subjects received efficacy assessments with brain MRI with contrast on Day 1 Week 7, Day 1 Week 13, and then one time every 8 weeks (±1 week). MRIs occurred at ±7 days per scheduled visits. Investigators will obtain more frequent follow-up MRI scans as medically indicated.
The primary efficacy measure of the study is overall survival (OS). OS is defined as the time between the date of randomization and the date of death due to any cause. OS is followed continuously while subjects are on study drug and every 3 months via in-person or phone contact during the survival follow-up phase of the study.
Investigator-assessed tumor response is based upon published RANO criteria. Tumor assessments are performed as shown above in the imaging assessment for the study. Radiologic response was assessed by comparing the pretreatment baseline and on-treatment MRI scans. Radiologic progression was determined by using the smallest tumor measurement at either the pretreatment baseline or after initiation of study medication.
A complete response required: complete disappearance of all enhancing measurable and nonmeasurable disease sustained for at least 4 weeks; no new lesions; stable or improved nonenhancing (T2/FLAIR) lesions; patients must be off corticosteroids (or on physiologic replacement doses only); and stable or improved clinically. Patients with nonmeasurable disease only cannot have a complete response; the best response possible is stable disease. […]

[3] = exploratory analysis, Cohort 1, recurrent GBM, N = 10 per arm, same regimens
[4] = investigator-assessed per RANO, Cohort 1, recurrent GBM, N = 10 per arm, nivolumab 3 mg/kg Q2W or nivolumab 1 mg/kg + ipilimumab 3 mg/kg Q3W x4 then nivolumab 3 mg/kg Q2W

T1 sequence (Q15116 25-288): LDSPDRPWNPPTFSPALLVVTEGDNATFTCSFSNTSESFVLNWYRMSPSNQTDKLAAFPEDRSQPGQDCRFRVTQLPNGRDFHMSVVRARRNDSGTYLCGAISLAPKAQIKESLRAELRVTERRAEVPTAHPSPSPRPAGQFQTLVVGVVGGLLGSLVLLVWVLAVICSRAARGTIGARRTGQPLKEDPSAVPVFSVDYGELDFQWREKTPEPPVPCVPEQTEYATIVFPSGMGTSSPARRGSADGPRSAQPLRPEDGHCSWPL

nivolumab
Subjects with apparent progression of disease before objective response and/or stable disease [1]: approximately 10%
Terminal half life [2]: up to 25 days
Mean plateau PD-1 occupancy (PD-1; range 59% to 81%): 72%
Mean PD-1 occupancy rate (PD-1; range 70% to 97%): 85%
Production of IFNγ by Tregs (Tregs): increase production of IFNγ
Patients who experienced stable disease or better (recurrent GBM; Cohort 1 nivolumab monotherapy 3 mg/kg, RANO): 6/10
Time on treatment of the one patient still receiving nivolumab at cutoff (recurrent GBM; Cohort 1 nivolumab monotherapy arm, cutoff Sep. 9, 2015): 17.5 months
Brain MRI following three treatments (recurrent GBM; case: Cohort 1 Arm N, nivolumab 3 mg/kg monotherapy): disease progression as per RANO
Response according to RANO criteria (recurrent GBM; case: MGMT methylated, EGFRvIII positive GBM, nivolumab 3 mg/kg): partial response
Brain MRI four weeks after resection (recurrent GBM; case: nivolumab 3 mg/kg): did not show tumor growth
Brain MRI on Aug. 28, 2014 (recurrent GBM; case: nivolumab 3 mg/kg delayed, dexamethasone 4 mg BID): improvement with resolution of rim enhancement
Death, time after randomization (recurrent GBM; case: nivolumab 3 mg/kg, treated 227 days): 397 days
Karnofsky performance status at all subsequent visits (recurrent GBM; case: nivolumab 3 mg/kg, 90 at baseline): 90
Time to distant disease progression after resuming nivolumab following surgery (recurrent GBM; case: nivolumab 3 mg/kg, hippocampus and right hypothalamus, proven on autopsy): 4 months
Overall survival: Median, months (95% CI) (recurrent GBM; exploratory analysis, Cohort 1, recurrent GBM, N = 10 per arm, nivolumab 3 mg/kg Q2W or nivolumab 1 mg/kg + ipilimumab 3 mg/kg Q3W x4 then nivolumab 3 mg/kg Q2W, NE: not estimated): 10.5 (4.1-NE)^ months
Overall survival: 6-month rate (95% CI) (recurrent GBM; [3]): 70.0% (32.9-89.2)
Overall survival: 9-month rate (95% CI) (recurrent GBM; [3]): 60.0% (25.3-82.7)
Overall survival: 12-month rate (95% CI) (recurrent GBM; [3]): 40.0% (12.3-67.0)
Overall survival: Range, months (recurrent GBM; [3]): 4.1-17.6 months
Best overall response: Complete Response (recurrent GBM; [4]): 0 n (%)
Best overall response: Partial Response (recurrent GBM; [4]): 1 (10) n (%)
Best overall response: Progressive Disease (recurrent GBM; [4]): 3 (30) n (%)
Best overall response: Stable Disease (recurrent GBM; [4]): 5 (50) n (%)
Best overall response: Unable to Determine (recurrent GBM; [4]): 1 (10) n (%)
